Reference: US11826352B2, “Edaravone suspension for oral administration” (MITSUBISHI TANABE PHARMA CORPORATION, priority 2018, dated 2023)

Experiments:
[1] = Contact angle test; assay type: physicochemical; conditions: edaravone saturated aqueous solution with 0.1% (w/v) additive on edaravone tablet; 1 μL, after 3.1 seconds
Experimental: Here, “80 degrees or less” means a range of 0-80 degrees. […] Here, the edaravone tablet refers to an edaravone tablet obtained by compression-molding 120 mg of edaravone (D50: 37 D90: 143 μm) in a flat punch having a diameter of 8 mm at a tableting pressure of 800 kg, and measurement of the contact angle refers to a case where the contact angle is measured using a contact angle measuring device (CAX-150 manufactured by Kyowa Interface Science) under the following conditions. • Syringe used: glass, 1 mL • Needle: 23 gauge • Liquid volume: 1 μL • Measurement time: after 3.1 seconds
120 mg of an edaravone drug substance (D50: 37 μm, D90: 143 μm) was compression-molded using a single-punch tableting machine (Compaction Analyzer) (punch: flat punch having a diameter of 8 mm; tableting pressure: 800 kgf), and an edaravone tablet for contact angle measurement was obtained.
Edaravone saturated aqueous solutions in which drug product additives described in the following table that are substances having a function capable of dispersing solid particles in a liquid were dissolved 0.1% (w/v) therein were prepared at a room temperature, and contact angles with respect to the edaravone tablet prepared above were measured using a contact angle measurement device (Kyowa Interface Science, Inc., CAX-150). […]

[2] = Transmission scattering light intensity test; assay type: physicochemical; conditions: 40 mL 0.1% (w/v) additive solution + 840 mg edaravone particles; for Dispersion State of Edaravone: stirred 30 minutes or more; for Transmission Scattering light Intensity ΔT %: TURBISCAN Tower, 25° C., height 39-40 mm, after 10 minutes
Experimental: Further, here, the transmission scattering light intensity means a value obtained after 10 minutes after starting a measurement of a transmission scattering light intensity, the measurement being performed by filling 20 mL of the above liquid in a cylindrical sample bottle (inner diameter: 25 mm×outer diameter: 27.5 mm×height: 72 mm) and by measuring the transmission scattering light intensity at a height of 39-40 mm of the sample bottle using a TURBISCAN Tower (manufactured Formulaction) (25° C.).
0.1% (w/v) aqueous solutions of drug product additives described in the following table that are substances having a function capable of dispersing solid particles in a liquid were prepared at a room temperature.
40 mL of each of the aqueous solutions of the additives was added to 840 mg of edaravone particles (edaravone powder, D50: 37 μm, D90: 143 μm) and the mixture was stirred using a stirrer for 30 minutes or more, and a dispersed state of the edaravone particles was confirmed.
Further, 20 mL of the dispersion liquid obtained above was filled into a sample bottle (inner diameter: 25 mm×outer diameter: 27.5 mm×height: 72 mm), and measurement of a transmission scattering light intensity ΔT % at a height of 39-40 mm of the sample bottle was started using a TURBISCAN Tower (manufactured by Formulaction) (with a temperature set to 25° C.), and a value obtained after 10 minutes after the start of the measurement was defined as the transmission scattering light intensity ΔT % for each additive. The transmission scattering light intensities ΔT % of the additives and the dispersion state of the edaravone particles in the additive solutions are shown in the following table.

Contact Angle [1] | Dispersion State of Edaravone [2] | Transmission Scattering light Intensity ΔT % [2] | Molecule
83.3 degrees | not dispersed | 0.000% | OC[C@@H](O)[C@@H](O)[C@H](O)[C@@H](O)CO [D-sorbitol]
53.1 degrees | dispersed | 6.151% | Polysorbate 80
